Reference: the NIST ThermoML archive (doi:10.1021/je400529k)

Assays:
[1] = xn = mol fraction of the nth substance listed; conditions: 101 kPa, Liquid; for viscosity: Capillary tube (Ostwald / Ubbelohde) method; for mass density: Vibrating tube method
[2] = refractive index (Na D-line) (dimensionless); xn = mol fraction of the nth substance listed; conditions: 101 kPa, Liquid, Standard Abbe refractometry

C1C[C@@H]2[C@H]3CC[C@H](C3)[C@@H]2C1 [exo-tetrahydrodicyclopentadiene] + CCCCC1CCCCC1
Conditions | mass density, [1] [kg/m3] | refractive index, [2] | viscosity, [1] [mPa·s]
293.15 K, x1 = 0.1 | 811.06 | 1.444 | 1.391
293.15 K, x1 = 0.1993 | 822.96 | 1.4478 | 1.49
293.15 K, x1 = 0.2997 | 835.42 | 1.4521 | 1.602
293.15 K, x1 = 0.3991 | 848.2 | 1.4568 | 1.732
293.15 K, x1 = 0.5002 | 861.66 | 1.4613 | 1.879
293.15 K, x1 = 0.6005 | 875.49 | 1.466 | 2.044
293.15 K, x1 = 0.7 | 889.72 | 1.4712 | 2.234
293.15 K, x1 = 0.8004 | 904.57 | 1.4766 | 2.446
293.15 K, x1 = 0.8999 | 919.8 | 1.4818 | 2.688
293.15 K, x1 = 1 | 935.72 | 1.4874 | 2.992
298.15 K, x1 = 0.1 | 807.31 | – | 1.279
298.15 K, x1 = 0.1993 | 819.19 | – | 1.367
298.15 K, x1 = 0.2997 | 831.63 | – | 1.467
298.15 K, x1 = 0.3991 | 844.39 | – | 1.584
298.15 K, x1 = 0.5002 | 857.83 | – | 1.715
298.15 K, x1 = 0.6005 | 871.64 | – | 1.863
298.15 K, x1 = 0.7 | 885.86 | – | 2.032
298.15 K, x1 = 0.8004 | 900.7 | – | 2.224
298.15 K, x1 = 0.8999 | 915.95 | – | 2.438
298.15 K, x1 = 1 | 931.84 | – | 2.71
303.15 K, x1 = 0.1 | 803.53 | 1.4393 | 1.181
303.15 K, x1 = 0.1993 | 815.39 | 1.4435 | 1.261
303.15 K, x1 = 0.2997 | 827.82 | 1.448 | 1.351
303.15 K, x1 = 0.3991 | 840.57 | 1.4522 | 1.456
303.15 K, x1 = 0.5002 | 853.98 | 1.457 | 1.574
303.15 K, x1 = 0.6005 | 867.78 | 1.4619 | 1.707
303.15 K, x1 = 0.7 | 881.99 | 1.4669 | 1.858
303.15 K, x1 = 0.8004 | 896.81 | 1.4718 | 2.031
303.15 K, x1 = 0.8999 | 912.05 | 1.4774 | 2.223
303.15 K, x1 = 1 | 927.94 | 1.4831 | 2.467
308.15 K, x1 = 0.1 | 799.75 | – | 1.096
308.15 K, x1 = 0.1993 | 811.6 | – | 1.168
308.15 K, x1 = 0.2997 | 824.01 | – | 1.249
308.15 K, x1 = 0.3991 | 836.73 | – | 1.344
308.15 K, x1 = 0.5002 | 850.13 | – | 1.451
308.15 K, x1 = 0.6005 | 863.92 | – | 1.571
308.15 K, x1 = 0.7 | 878.11 | – | 1.707
308.15 K, x1 = 0.8004 | 892.92 | – | 1.862
308.15 K, x1 = 0.8999 | 908.14 | – | 2.036
308.15 K, x1 = 1 | 924.02 | – | 2.255
313.15 K, x1 = 0.1 | 795.96 | 1.435 | 1.02
313.15 K, x1 = 0.1993 | 807.79 | 1.4391 | 1.085
313.15 K, x1 = 0.2997 | 820.18 | 1.4435 | 1.159
313.15 K, x1 = 0.3991 | 832.89 | 1.448 | 1.245
313.15 K, x1 = 0.5002 | 846.27 | 1.4524 | 1.342
313.15 K, x1 = 0.6005 | 860.05 | 1.4575 | 1.451
313.15 K, x1 = 0.7 | 874.22 | 1.4626 | 1.573
313.15 K, x1 = 0.8004 | 889.02 | 1.4677 | 1.715
313.15 K, x1 = 0.8999 | 904.23 | 1.4728 | 1.872
313.15 K, x1 = 1 | 920.11 | 1.4786 | 2.069
318.15 K, x1 = 0.1 | 792.17 | – | 0.952
318.15 K, x1 = 0.1993 | 803.98 | – | 1.012
318.15 K, x1 = 0.2997 | 816.35 | – | 1.079
318.15 K, x1 = 0.3991 | 829.04 | – | 1.157
318.15 K, x1 = 0.5002 | 842.41 | – | 1.246
318.15 K, x1 = 0.6005 | 856.16 | – | 1.345
318.15 K, x1 = 0.7 | 870.32 | – | 1.456
318.15 K, x1 = 0.8004 | 885.11 | – | 1.585
318.15 K, x1 = 0.8999 | 900.32 | – | 1.727
318.15 K, x1 = 1 | 916.18 | – | 1.907
